The values below come from patent US4845233A, “Imidazolin-2-ones” (IPRX, Inc., priority 1987, dated 1989).

Series [1] in a line: in vitro transdermal penetration of indomethacin from petrolatum ointment through shed snake skin, vertical diffusion cell. The conditions noted are these: for Relative Penetration: 5% enhancer in ointment, indomethacin, slope relative to Azone = 100%. Format: in vitro ADME, Elaphe obsoleta (black rat snake). Here is the method: Ointments were prepared by mixing 1% indomethacin, 5% dermal penetration enhancer and 94% petrolatum at 55°-60° C. to give a homogeneous dispersion of indomethacin. In the cases where the enhancers are liquid the indomethacin and the enhancer were first mixed well and then followed by the incorporation of the petrolatum. The mixture was melted at 55°-60° C. and stirred until a homogeneous ointment was obtained. For low melting enhancers, the enhancer and the indomethacin were melted together and mixed in a water-bath followed by the incorporation of petrolatum. For high melting enhancers, it was necessary to mix the components in an agate mortar.
A whole shed snake skin from the molt of adult Elaphe obsoleta (black rat snake) was obtained from the Animal Care Unit of the University of Kansas. Only the dorsal side of the shed snake skin was used for in vitro penetration studies. The head and tail sections of the snake skin was removed and the remainder of the skin was cut randomly into sections of approximately 2 inches by 2 inches. Each piece of snake skin was hydrated overnight by first soaking the skin in water (about 5 to 10 min) until it could be stretched and then it was placed on a plastic pan which held some water. The pan was floated on a water-bath of 32° C. overnight.
Approximately 30 mg of ointment as prepared as described in Example 23 was smeared evenly on an area of the 2"×2" snake skin. The ointment was smeared into an essentially circular area approximately 1.77 cm^2 and having a diameter of approximately 15 mm. The snake skin was then mounted on top of the receptor cell of a verticle diffusion cell assembly in which a small magnetic bar was inserted and filled with an isotonic buffer. A rubber o-ring was placed on top of the skin followed by the placement of the donor cell. The two cells were clamped together and transferred to a water-bath (32° C.) which had several magnetic stirrers placed underneath to stir the contents of the diffusion cells. Samples from the cells were withdrawn periodically by gravity by inputing fresh isotonic buffer into the cells inlets. The first five drops were discarded and the following four drops were collected for analysis. These nine drops of sample solution were approximately equivalent to about 0.20 ml.
The samples were analyzed for the concentration of indomethacin using either a Spectroflow 783 programmable absorbance detector or a Perkin-Elmer ISS-100 HPLC apparatus with a Perkin-Elmer LC9 UV spectrophotometric detector and a Perkin-Elmer ISS-100 automatic sampler with the detection wavelength set at 260 nm. A reverse phase column, RP-8 Spheri-5, 4.6×100 mm and a guard tube OD-GU, purchased from Brownlee Labs, were used in conjunction with the HPLC system. The flow rate was 1.0 ml/min and the solvent system was a mixture of acetonitrile (50%) and a 0.01M phosphate buffer (pH 3.0) (50%).
The concentration in each sample was interpreted from a standard curve which was obtained by plotting the peak areas obtained from HPL chromatograms versus four different standard solutions of indomethacin. The standard curves were linear over a range of concentrations from 2.5 to 10 ug/ml. The receptor cell volume was calibrated by weighing the amount of water in the cell. The first sample needs no concentration correction. However, the concentration in the subsequent samples can be corrected by the following equation [formula] where xi is a member of microgram of indomethacin in the i^th sample. Also, the volume withdrawn for each sampling is about 0.20 ml. Yi is the concentration correction for i-1 sample.
The foregoing results were obtained by using 5% of the transdermal penetration enhancer in the ointment. […] Thus, Table III primarily reflects the transdermal penetration data of […] from ointments of 94% petrolatum and 5% enhancer. In Run No. 14, Azone was selected as the standard for comparison since it is claimed to be an excellent enhancer although it is too toxic. […]

For series [2] the following is noted: intraperitoneal; cited from earlier work.
Series [3] is described as follows: in vitro transdermal penetration of indomethacin from petrolatum ointment through shed snake skin, vertical diffusion cell. In kind it is in vitro ADME, Elaphe obsoleta (black rat snake). The conditions noted are these: * 10% enhancer in ointment, slope relative to Azone = 100%.
Series [4] deals with Swiss white mice. The conditions noted are these: mouse, in vivo, sc, 1000 mg/kg.
For series [5], the system named is Swiss white mice. The experiment in a line: Chronic Toxicity Study, subcutaneous daily for 14 days. Format: in vivo. The note with it: 1000 mg/Kg daily for 14 days. Here is the method: The compound identified in Example 25 and represented as Run No. 3 in Table III, was also evaluated for chronic toxicity. Six Swiss white mice were injected subcutaneously at a dose of 1000 mg/Kg daily for 14 days. A sample dispersion of 400 mg/4.0 ml was prepared by dispersing the soft enhancer in a powder form in a 2% Tween 80 saline solution. The homogeneous dispersion was obtained by vortexing the material in a conical flask in which a plastic ball was placed. Sample dispersion was prepared alternative day in order to avoid serious contamination. Prior to injection the dispersion was shaken and withdrawn into a sterile graduated 1 cc TB syring (readable to 0.05 ml). Sterile hypodermic needles (25.4 mm) were required for injecting the dispersion. The control mice were injected an equivalent volume of the 2% Tween 80 suspension in saline. The suspension was prepared on an alternative day to avoid serious contamination. […] Two mice injected with the sample and one from the control were sacrificed and dissected for examination. For the control mouse, there was no obvious damage to the tissue and the internal organs. […] The mice were maintained for a period of 39 days during which time one mouse was sacrificed to check for the presence of the yellowish material.

As to “1-Methyl-4-imidazolin-2-one-3-propylenedodecanoate [Run No. 5]”, the “penetration enhancement of indomethacin versus Azone (FIG. 1)” value in series [1] (within the first 24 hours) was “well above that of the standard Azone”.

For the compound `CCCCCCCCCCCCN1CCCCCC1=O` [Azone, 1-Dodecylazacycloheptane-2-One, reference compound], the LD50 result in series [2] was “approximately 232 mg/kg”. The “Relative Penetration” value in series [1] came to 100%.

`CCCCCCCCCCCCCC(=O)OC(C)n1ccn(CC)c1=O` (stereo not drawn) [Run No. 7, 1-ethyl-4-imidazolin-2-one-3-α-ethyltetradecanoate]: the “Relative Penetration” value in series [1] came to 50%.

On to `CCCCCCCCCCOC(=O)OCn1ccn(C)c1=O` [Run No. 9], for which the “Relative Penetration” value in series [1] is 15%.

In the case of `CCCCCCCCCCCCCCOC(=O)OCn1ccn(C)c1=O` [Run No. 10], the “Relative Penetration” value in series [1] was determined as 10%.

As to `CCCCCCCCCCCC(=O)OCn1ccn(C)c1=O` [Run No. 12, 1-Methyl-4-imidazolin-2-one-3-methylenedodecanoate], the “Relative Penetration” value was found to be 20% in series [3] and 10% in series [1].

In the case of `CCCCCCCCCCCC(=O)OC(C)Cn1ccn(C)c1=O` (centres unmarked) [compound 1], in series [1], the “Relative Penetration” value is on record as 120-200%.

For `CCCCCCCCCCCCCC(=O)OC(C)Cn1ccn(C)c1=O` (centres unmarked) [compound 2], the “Relative Penetration” value in series [1] amounted to 70%.

As to `CCCCCCCCCCCCCC(=O)OC(C)n1ccn(C)c1=O` (centres unmarked) [compound 3], the “damage to internal organs and tissue at the injection site (dissection)” value in series [4] was “no obvious damage to the internal organs and tissue at the injection site”. Further, the entries for the “Relative Penetration” value in series [3] and in series [1] were 50% and 80-100%, respectively. Besides, in series [5], the “damage to internal organs (dissection)” value was “no obvious damage to the internal organs was seen”. Further, in series [5], the “injection site finding (dissection)” value is recorded as “a substantial amount of yellowish material was found on the injection site”. The “yellowish material at injection site at follow-up” value in series [5] (after 39 days) is “The yellowish material disappeared after 39 days”.

For the compound `CCCCCCCCCCCC(=O)OC(C)n1ccn(C)c1=O` (centres unmarked) [compound 4], the “Relative Penetration” value in series [3] is 40%; in series [1], 60%.

For the compound `CCCCCCCCCCCC(=O)OCCCn1ccn(C)c1=O` [compound 5], the “Relative Penetration” value in series [1] came to 100%.

Turning to `CCCCCCCCCCCC(=O)OCCn1ccn(C)c1=O` [compound 6], the “Relative Penetration” value in series [1] came to 60%.

On to `CCCCCCCCCCCCOC(=O)OCn1ccn(C)c1=O` [compound 8], for which the “Relative Penetration” value in series [1] turned out to be 50%.

For `CCCCCCCCCC(=O)OCn1ccn(C)c1=O` [compound 11], the “Relative Penetration” value in series [1] stood at 10%.

Take `CCCCCCCCCC(=O)OC(C)Cn1ccn(C)c1=O` (centres unmarked) [compound 13]: the “Relative Penetration” value in series [1] is reported as 50%.
